Measured values as given in PubChem BioAssay (NCI).
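Exposure lasted 48 hours, with cells grown in 96-well plates and compounds tested at five concentrations. GI50 = concentration required for 50% inhibition of growth. TGI marks complete inhibition of growth.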

Key:
Assay in all cases: inhibition of tumour cell growth, NCI panel, 48 h
[1] = test system: SF-295 CNS
[2] = test system: A498 renal
[3] = test system: OVCAR-4 ovarian
[4] = test system: NCI-H522 lung
[5] = test system: SK-MEL-2 melanoma
[6] = test system: A549 NSCLC
[7] = test system: HT29 colon
[8] = test system: UACC-62 melanoma
[9] = test system: U251 CNS
[10] = test system: HCT-15 colon

Compound Cn1cc(-c2csc(-c3cn(C)c4ncccc34)n2)c2ccccc21 has a GI50 [1] of 0.274 µM, a TGI [1] of 12.6 µM and a GI50 [2] of 0.496 µM. It also gave a TGI [2] of 8.65 µM, a GI50 [3] of 7.1 µM and a TGI [3] of 44 µM. It also gave a GI50 [4] of 0.0889 µM, a TGI [4] of 1.16 µM and a GI50 [5] of 0.405 µM. It also gave a TGI [5] of 16.8 µM, a GI50 [6] of 0.634 µM and a TGI [6] of 23.8 µM. It also gave a GI50 [7] of 0.276 µM, a TGI [7] of 4.16 µM and a GI50 [8] of 0.325 µM. It also gave a TGI [8] of 44.3 µM, a GI50 [9] of 0.404 µM and a TGI [9] of 13.3 µM. The GI50 [10] was 0.23 µM and the TGI [10] was over 100 µM.

Work on COc1ccc(C=O)c(N(C)C(=O)C(C)(C)C)c1 yielded a TGI [1] of over 100 µM, a TGI [2] of over 100 µM and a TGI [3] of over 100 µM. It also gave a TGI [4] of over 100 µM, a TGI [5] of over 100 µM and a TGI [6] of over 100 µM. It also gave a TGI [7] of over 100 µM, a TGI [8] of over 100 µM and a TGI [9] of over 100 µM. It also gave a TGI [10] of over 100 µM.

In the case of c1ccc(CNc2nc(Nc3ccc(-c4nc5ccccc5[nH]4)cc3)c3cn[nH]c3n2)cc1, the GI50 [1] is reported as 1.7 µM, the TGI [1] is reported as 3.84 µM and the GI50 [2] is reported as 2.93 µM. The TGI [2] was 8.22 µM, the GI50 [3] was 2.28 µM and the TGI [3] was 7.14 µM. The GI50 [4] was 2.24 µM, the TGI [4] was 5.68 µM and the GI50 [6] was 2.89 µM. It also gave a TGI [6] of 8.92 µM, a GI50 [7] of 2.09 µM and a TGI [7] of 5.57 µM. The GI50 [8] was 2.13 µM, the TGI [8] was 4.92 µM and the GI50 [9] was 2.27 µM. It also gave a TGI [9] of 5.85 µM, a GI50 [10] of 1.89 µM and a TGI [10] of 7.65 µM.

OCCC#Cc1ccccc1C#Cc1ccccc1 was tested, and the GI50 [1] was 5.47 µM, the TGI [1] was 19.8 µM and the GI50 [3] was 24.1 µM. It also gave a TGI [3] of 72.4 µM, a GI50 [4] of 32.1 µM and a TGI [4] of over 100 µM. For the same compound, the GI50 [5] was 40.6 µM, the TGI [5] was over 100 µM and the GI50 [6] was 36.3 µM. It also gave a TGI [6] of 83.2 µM, a GI50 [7] of 18 µM and a TGI [7] of over 100 µM. For the same compound, the GI50 [8] was 11.9 µM, the TGI [8] was 24.4 µM and the GI50 [9] was 35 µM. It also gave a TGI [9] of over 100 µM, a GI50 [10] of 11.6 µM and a TGI [10] of 24.8 µM.

Cc1cc2c(C)nn(Cc3ccc(Cl)cc3Cl)c2c(C#N)c1C was tested, and the TGI [1] was over 100 µM, the TGI [5] was over 100 µM and the TGI [6] was over 100 µM. It also gave a TGI [7] of over 100 µM, a TGI [8] of over 100 µM and a TGI [9] of over 100 µM. It also gave a TGI [10] of over 100 µM.

In the case of COC(=O)C12C3C=CC(O3)C1C1C=CC2O1 (stereo not given), the TGI [1] is reported as over 100 µM, the TGI [4] is reported as over 100 µM and the TGI [5] is reported as over 100 µM. The TGI [6] was over 100 µM, the TGI [7] was over 100 µM and the TGI [9] was over 100 µM. For the same compound, the TGI [10] was over 100 µM.

CC(=O)OCC1OC(n2cnc3c(I)nc(I)nc32)C(OC(C)=O)C1OC(C)=O (stereo not given) gave a TGI [1] of 35.1 µM, a TGI [2] of 38.3 µM and a TGI [3] of 17.4 µM. The TGI [4] was 3.53 µM, the TGI [5] was 33 µM and the TGI [6] was 32.7 µM. The TGI [7] was 19.7 µM, the TGI [8] was 27.2 µM and the TGI [9] was 22.9 µM. The TGI [10] was 15.6 µM.

Compound S=c1nc(/C=C/c2ccc(Cl)c(Cl)c2)[nH][nH]1 has a TGI [1] of over 100 µM, a TGI [2] of over 100 µM and a GI50 [3] of 65.5 µM. For the same compound, the TGI [3] was over 100 µM, the TGI [4] was over 100 µM and the TGI [5] was over 100 µM. It also gave a TGI [6] of over 100 µM, a TGI [7] of over 100 µM and a TGI [8] of over 100 µM. For the same compound, the TGI [9] was over 100 µM and the TGI [10] was over 100 µM.

For CCCCCNC(=O)C1C(=O)N(CCCCC)C(=O)/C1=N\N (stereo not given), the TGI [1] was over 100 µM, the TGI [2] was over 100 µM and the TGI [3] was over 100 µM. The TGI [4] was over 100 µM, the TGI [5] was 86.2 µM and the TGI [6] was over 100 µM. It also gave a TGI [7] of over 100 µM, a TGI [8] of over 100 µM and a TGI [9] of over 100 µM. For the same compound, the TGI [10] was over 100 µM.

O=C(NCCS(=O)(=O)N1C(=O)C2CCCN2C(=O)[C@@H]1Cc1ccccc1)OCc1ccccc1 (stereo not given in full) gave a TGI [1] of over 100 µM, a TGI [2] of 95.9 µM and a TGI [3] of over 100 µM. For the same compound, the TGI [4] was over 100 µM, the TGI [6] was over 100 µM and the TGI [7] was over 100 µM. The TGI [8] was over 100 µM, the TGI [9] was over 100 µM and the TGI [10] was over 100 µM.

With CCN1N=CSC12C(=O)N(c1ccccc1)C(=O)N2c1ccccc1 (stereo not given) the TGI [1] was over 100 µM, the TGI [2] was over 100 µM and the TGI [3] was over 100 µM. It also gave a TGI [4] of over 100 µM, a TGI [6] of over 100 µM and a TGI [7] of over 100 µM. It also gave a TGI [8] of over 100 µM and a TGI [9] of over 100 µM.

In the case of COc1ccc(Nc2nc3c(N)cc(C(F)(F)F)cc3nc2-c2ccccc2)cc1, the TGI [1] is reported as over 100 µM, the TGI [2] is reported as over 100 µM and the TGI [3] is reported as over 100 µM. For the same compound, the TGI [4] was over 100 µM, the TGI [5] was over 100 µM and the TGI [6] was over 100 µM. For the same compound, the TGI [8] was over 100 µM, the TGI [9] was over 100 µM and the TGI [10] was over 100 µM.

With Cc1ccc2c(c1)/C(=N\N=C/c1cn(C(C)C)c3ccccc13)C(=O)N2 the GI50 [1] was over 100 µM, the TGI [1] was over 100 µM and the GI50 [2] was 1.6 µM. It also gave a TGI [2] of over 100 µM, a GI50 [3] of 0.277 µM and a TGI [3] of over 100 µM. It also gave a GI50 [4] of 1.05 µM, a TGI [4] of over 100 µM and a GI50 [5] of 2.3 µM. It also gave a TGI [5] of 23 µM, a GI50 [6] of 5.66 µM and a TGI [6] of over 100 µM. It also gave a GI50 [7] of 2.82 µM, a TGI [7] of over 100 µM and a GI50 [8] of 2.69 µM. For the same compound, the TGI [8] was over 100 µM, the GI50 [9] was 3.9 µM and the TGI [9] was over 100 µM. It also gave a GI50 [10] of 2.12 µM and a TGI [10] of over 100 µM.

O=C1/C(=C/c2ccccc2Cl)COc2ccccc21 gave a TGI [1] of 37.6 µM, a TGI [2] of 32.4 µM and a TGI [4] of 30.5 µM. The TGI [5] was 29 µM, the TGI [6] was 55.8 µM and the TGI [7] was 45.1 µM. It also gave a TGI [9] of 26.9 µM.

Compound COC12c3ccccc3-c3ccccc3C1[C@@H](C(=O)O)[C@H]2C(=O)O (stereo not given in full) has a TGI [1] of over 10 µM, a TGI [2] of over 10 µM and a TGI [3] of over 10 µM. For the same compound, the TGI [4] was over 10 µM, the TGI [5] was over 10 µM and the TGI [7] was over 10 µM. For the same compound, the TGI [9] was over 10 µM and the TGI [10] was over 10 µM.

For Cn1c(=O)c2c(nc3n2C(CCl)CO3)n(C)c1=O (stereo not given), the TGI [1] was over 100 µM, the TGI [2] was over 100 µM and the TGI [3] was over 100 µM. For the same compound, the TGI [4] was over 100 µM, the TGI [5] was over 100 µM and the TGI [7] was over 100 µM. It also gave a TGI [8] of over 100 µM, a TGI [9] of over 100 µM and a TGI [10] of over 100 µM.

COc1ccc(Br)c(CCCCC(=O)O)c1 was tested, and the TGI [1] was over 100 µM, the TGI [2] was over 100 µM and the TGI [3] was over 100 µM. It also gave a TGI [6] of over 100 µM, a TGI [7] of over 100 µM and a TGI [8] of over 100 µM. The TGI [9] was over 100 µM and the TGI [10] was over 100 µM.

CNS(=O)(=O)NN(C)S(=O)(=O)c1ccc(C)cc1 showed a TGI [1] of over 100 µM, a TGI [2] of over 100 µM and a TGI [3] of over 100 µM. For the same compound, the TGI [4] was over 100 µM, the TGI [5] was over 100 µM and the TGI [6] was over 100 µM. For the same compound, the TGI [7] was over 100 µM and the TGI [8] was over 100 µM.

With COc1cc(-c2[nH]ncc2CCCC(=O)Nc2ccccc2[N+](=O)[O-])ccc1O the TGI [1] was over 100 µM, the TGI [2] was over 100 µM and the TGI [3] was over 100 µM. It also gave a TGI [4] of over 100 µM, a TGI [6] of over 100 µM and a TGI [7] of over 100 µM. It also gave a TGI [8] of over 100 µM, a TGI [9] of over 100 µM and a TGI [10] of over 100 µM.

With O=S(=O)(Nc1ccc2ccc3cccc4ccc1c2c34)c1ccccc1 the TGI [1] was over 100 µM, the TGI [3] was over 100 µM and the TGI [4] was over 100 µM. For the same compound, the TGI [5] was over 100 µM, the TGI [6] was over 100 µM and the TGI [7] was over 100 µM. The TGI [8] was over 100 µM, the TGI [9] was over 100 µM and the TGI [10] was over 100 µM.
